Converted amounts (≈) assume the structure as drawn.
Experiments:
physchem [1] = conditions: 50% w/w aqueous hpcd
Method: An excess of E2-CDS was sonicated with an aqueous solution of the appropriate solubilizing agent for 30 minutes. The suspension was then centrifuged, filtered through 0.45 µm polyvinylidene difluoride (Millex-HV4, Millipore®) membranes and analyzed by HPLC. […] An estimation of the bulk equilibrium constant was obtained by correlating the millimolarity of E2-CDS solubilized and the millimolarity of the cyclodextrin added. This latter value was calculated using the average molecular weight of the isomeric mixture determined by mass spectroscopy. The solubilizing effect of a 50% w/w solution of HPCD was also examined for a series of steroids and dihydropyridines (CDS). These studies were carried out in a similar manner to those previously described.
For the CDS, the wavelength monitored was 360 nm while for estrogen 220 nm was used.
Separation was achieved on an Analytical Sciences, Inc. (ASI) 10 µm particle size, C18 reversed phase 30 cm x 3.9 mm i.d. analytical column. The flow rate was 1 mL/min, the compounds were detected at 360 nm and in all determinations the temperature was ambient. […] For the GABA-CDS1, a mobile phase consisting of 50:1:1:48 of the same components was required. […] Other compounds were assayed spectrophotometrically.

[2] = Preparation of solid freeze-dried HPCD complexes: degree of incorporation; assay type: physicochemical; conditions: freeze-dried complex from 50% w/w HPCD (ASDS 5.1)
Method: An excess of E2-CDS was added and the solution then was purged with helium. The resulting suspension was then sonicated for 30 minutes, filtered through a glass filter (ASTM 10-15M, Pyrex No. 36060) and freeze-dried overnight. Best results were obtained by hard-freezing the aqueous solution of the E2-CDS/HPCD complex for at least 10 hours before lyophilization. The degree of complex formation was determined by dissolving a small amount of the dry complex in methanol and then analyzing by high pressure liquid chromatography (HPLC).
An excess of E2-CDS or other CDS was added to a 50% w/w solution of HPCD. The suspension was sonicated for 30 minutes, filtered through 0.45 µm PVDF membranes and freeze-dried. The degree of incorporation was determined either spectrophotometrically or by HPLC. In some cases, the effect of solubilizing agents on the degree of incorporation was examined. This involved adding small amounts of polyoxyethylene 20 cetyl ether (Brij), polyoxyethylene sorbitan monooleate (Tween 80) or ethanol to the aqueous solution prior to lyophilization.
The retention time was 5.2 min. Other compounds were assayed spectrophotometrically.
The solution was degassed and the suspension was sonicated for 30 minutes, after which it was filtered and the filtrate was lyophilized. The dried filtrate contained 65.6 mg testosterone propionate or 29.6 mg T-CDS1 per gram of cyclodextrin complex. Compounds were analyzed for decomposition by thin-layer chromatography and ultraviolet absorption.

[3] = Phase-solubility experiments in aqueous HPCD at 25±1°C
Method: For comparison, the solubilities of the drugs in water were also determined.
• Wavelength: 245 nm • Column: Waters µBondapak CN, 3.9 mm (id.) x 30 cm • Mobile phase: acetonitrile, acetic acid, water (60:1:39) containing 0.1% 1-hexasulfonic acid, sodium salt • Flow rate: 2.00 mL/min.
• Wavelength: 263 nm • Column: ASI C18, 10 µm, 3.9 mm (i.d.) x 30 cm • Mobile phase: acetonitrile, water (55:45) • Flow rate: 1.00 mL/min.
• Wavelength: 241 nm • Column: Waters µBondapak CN, 3.9 mm (i.d.) x 30 cm • Mobile phase: acetonitrile, water (6:4) • Flow rate: 2.00 mL/min.
• Wavelength: 280 nm • Column: ASI C18, 10 µm, 3.9 mm (i.d.) x 30 cm • Mobile phase: acetonitrile, water (55:45) • Flow rate: 2.00 mL/min.
• Wavelength: 248 nm • Column: Fisher Resolvex C18, 4.6 mm (i.d.) x 25 cm • Mobile phase: acetonitrile, water (6:4) • Flow rate: 1.50 mL/min.
• Wavelength: 248 nm • Column: Fisher Resolvex C18, 4.6 mm (i.d.) x 25 cm • Mobile phase: acetonitrile, water (7:3) • Flow rate: 2.00 mL/min.
• Wavelength: 253 nm • Column: Waters µBondapak CN, 3.9 mm (i.d.) x 30 cm • Mobile phase: acetonitrile, […], water (60:1:39) containing 0.1% 1-hexanesulfonic acid, sodium salt • Flow rate: 2.00 mL/min.
• Wavelength 308 nm • Column: Fisher Resolvex C18, 4.6 mm (i.d.) x 25 cm • Mobile phase: methanol, acetic acid, water (50:1:49) containing 0.1% 1-octanesulfonic acid, sodium salt • Flow rate: 2.00 mL/min.
• Wavelength: 240 nm • Column: Fisher Resolvex C18, 4.6 mm (i.d.) x 25 cm • Mobile phase: acetonitrile, water (6:4) • Flow rate: 1.50 mL/min.
• Wavelength: 240 nm • Column: Fisher Resolvex C18, 4.6 mm (i.d.) x 25 cm Mobile phase: acetonitrile, water (7:3) • Flow rate: 2.00 mL/min.
• Wavelength: 241 nm • Column: Fisher Resolvex C18, 4.6 mm (i.d.) x 25 cm • Mobile phase: acetonitrile, water (7:3) • Flow rate: 2.00 mL/min.
• Wavelength: 230 nm • Column: Waters µBondapak CN, 3.9 mm (i.d.) x 30 cm • Mobile phase: acetonitrile, water (35:65) • Flow rate: 2.00 mL/min.
• Wavelength: 258 nm • Column: Fisher Resolvex C18, 4.6 mm (i.d.) x 25 cm • Mobile phase: acetonitrile, water (55:45) • Flow rate: 2.00 mL/min.
• Wavelength: 325 nm • Column: Waters µBondapak C18, 10 µm, 3.9 mm (i.d.) x 30 cm • Mobile phase: acetonitrile, water (55:45) • Flow rate: 1.00 mL/min.

physchem [4] = experiment: physchem
Method: (§1) After equilibration in a 30.0±0.2°C water bath in the dark for up to 72 hours, aliquots of the mixtures were filtered through 0.45 Mm membrane filters, diluted and the drug concentration determined by HPLC or UV methods.

[5] = Phase-solubility experiments in aqueous HPCD at 30.0±0.2°C (chlorambucil, lomustine, melphalan)
Method: as §1

CN1C=CCC(C(=O)NCCc2ccc(OC(=O)C(C)(C)C)c(OC(=O)C(C)(C)C)c2)=C1 [DA-CDS, 1-methyl-3-{{N-{β-[3,4-bis-(pivalyloxy)phenyl]ethyl}-carbamoyl}}-1,4-dihydropyridine]
solubility (physchem [1]): 16 mg/mL (≈ 36.2 mM) | Amount of Drug in Dry Complex [2]: 27 mg/g

CN(Cc1cnc2nc(N)nc(N)c2n1)c1ccc(C(=O)N[C@@H](CCC(=O)O)C(=O)O)cc1 [Methotrexate]
solubility ([3]; 50% w/w hpcd, pH 7.6): 10 mg/mL (≈ 22 mM) | solubility ([3]; water): 0.045 mg/mL (≈ 0.099 mM)

C#C[C@]1(O)CC[C@H]2[C@@H]3CCc4cc(O)ccc4[C@H]3CC[C@@]21C [17 α-Ethynylestradiol]
solubility ([3]; 25% w/v hpcd): 34.5 mg/mL (≈ 116 mM) | solubility ([3]; 50% w/w hpcd): 68.2 mg/mL (≈ 230 mM) | solubility ([3]; water): 0.008 mg/mL (≈ 0.027 mM)

C[C@@H]1C[C@H]2[C@@H]3CCC4=CC(=O)C=C[C@]4(C)[C@@]3(F)[C@@H](O)C[C@]2(C)[C@@]1(O)C(=O)CO [Dexamethasone]
solubility ([3]; 25% w/v hpcd): 24.2 mg/mL (≈ 61.6 mM) | solubility ([3]; 50% w/w hpcd): 44.3 mg/mL (≈ 113 mM) | solubility ([3]; water): 0.008 mg/mL (≈ 0.0204 mM)

N[C@@H](Cc1ccc(N(CCCl)CCCl)cc1)C(=O)O [Melphalan]
solubility (physchem [4]; 1% aqueous hpcd): 4.16 mg/mL (≈ 13.6 mM) | solubility (physchem [4]; 2% aqueous hpcd): 4.3 mg/mL (≈ 14.1 mM) | solubility (physchem [4]; 3% aqueous hpcd): 6.24 mg/mL (≈ 20.4 mM) | solubility (physchem [4]; 4% aqueous hpcd): 7.14 mg/mL (≈ 23.4 mM) | solubility (physchem [4]; 5% aqueous hpcd): 7.2 mg/mL (≈ 23.6 mM) | solubility (physchem [4]; 7% aqueous hpcd): 10.5 mg/mL (≈ 34.4 mM) | solubility (physchem [4]; 10% aqueous hpcd): 13.4 mg/mL (≈ 43.8 mM) | solubility (physchem [4]; 15% aqueous hpcd): 17.6 mg/mL (≈ 57.8 mM) | solubility (physchem [4]; 20% aqueous hpcd): 24.8 mg/mL (≈ 81.1 mM) | solubility (physchem [4]; 25% aqueous hpcd): 31.4 mg/mL (≈ 103 mM) | solubility at 4 h (physchem [4]; 50% aqueous hpcd): ~21.9 mg/mL (≈ 71.8 mM) | solubility (physchem [4]; water): 1.26 mg/mL (≈ 4.13 mM) | solubility (physchem [4]; water (0% hpcd)): 1.26 mg/mL (≈ 4.13 mM)

C#C[C@]1(O)CC[C@H]2[C@@H]3CCc4cc(OC)ccc4[C@H]3CC[C@@]21C [Ethynylestradiol 3-methyl ether]
Increase in Solubility (HPCD/water) [3]: ∼13,000 | solubility ([3]; 25% w/v hpcd): 7.13 mg/mL (≈ 23 mM) | solubility ([3]; 50% w/w hpcd): 13.3 mg/mL (≈ 42.8 mM) | solubility ([3]; water): 0.001 mg/mL (≈ 0.00322 mM)

1-methyl-3-N-[3-(benzyloxycarbonyl)propyl]-carbamoyl-1,4-dihydropyridine [GABA-CDS1]
Amount of Drug in Dry Complex [2]: 160 mg/g

C[C@]12CC[C@H]3[C@@H](CCC4=CC(=O)CC[C@@]43C)[C@@H]1CC[C@@H]2O [Testosterone]
solubility (physchem [1]): 38 mg/mL (≈ 132 mM)

Estradiol 17-Valerate
Amount of Drug in Dry Complex [2]: 23.5 mg/g

O=NN(CCCl)C(=O)NC1CCCCC1 [Lomustine]
solubility ([5]; 1% w/w aqueous hpcd): 0.38 mg/mL (≈ 1.63 mM) | solubility ([5]; 5% w/w aqueous hpcd): 1.68 mg/mL (≈ 7.19 mM) | solubility ([5]; 10% w/w aqueous hpcd): 3.33 mg/mL (≈ 14.2 mM) | solubility ([5]; 15% w/w aqueous hpcd): 6.26 mg/mL (≈ 26.8 mM) | solubility ([5]; 20% w/v aqueous hpcd): 8.44 mg/mL (≈ 36.1 mM) | solubility ([5]; 20% w/w aqueous hpcd): 8.44 mg/mL (≈ 36.1 mM) | increase: water/25% HPCD ([5]; 25% HPCD versus water): 49.44 | solubility ([5]; 25% w/v aqueous hpcd): 8.9 mg/mL (≈ 38.1 mM) | solubility ([5]; 25% w/w aqueous hpcd): 8.9 mg/mL (≈ 38.1 mM) | solubility at 4 h ([5]; 50% w/w aqueous hpcd): ~12 mg/mL (≈ 51.3 mM) | degradation during the solubility experiments ([5]; aqueous HPCD, 30°): Some degradation occurred | solubility ([5]; water): 0.18 mg/mL (≈ 0.77 mM) | solubility ([5]; water (0% hpcd)): 0.18 mg/mL (≈ 0.77 mM)

Reference: EP0335545B2, “Pharmaceutical formulations for parenteral use” (UNIVERSITY OF FLORIDA, priority 1988, dated 1989)
